Measurements: ChEMBL document CHEMBL3627686, “Discovery of the oxazabicyclo[3.3.1]nonane derivatives as potent and orally active GPR119 agonists” (Bioorg Med Chem Lett, 2015)
In brackets after ≈: the same amount, converted by molar mass. Activity calls are given as the source filed them. The calls are words filed in the database; no cut-off is given here.

Legend:
Mus musculus [1] = assay: Decrease in blood glucose level in C57B1/6NCrl mouse at 3 mg/kg, po administered 30 mins prior to oral glucose challenge by glucose tolerance test relative to control; format: functional
[2] = AUC (0 to 6 hrs) in Sprague-Dawley rat plasma at 10 mg/kg, po; format: ADME, organism-based; set-up: time < 6 hr, dose 10 mg/kg, route oral
[3] = molecular target: T1, Glucose-dependent insulinotropic receptor (Homo sapiens) (UniProt Q8TDV5); assay: (§1) Agonist activity at human GPR119 expressed in HEK293 cells assessed as cAMP accumulation after 30 mins by fluorescence analysis; format: functional, cell-based
T1 sequence (whole entry): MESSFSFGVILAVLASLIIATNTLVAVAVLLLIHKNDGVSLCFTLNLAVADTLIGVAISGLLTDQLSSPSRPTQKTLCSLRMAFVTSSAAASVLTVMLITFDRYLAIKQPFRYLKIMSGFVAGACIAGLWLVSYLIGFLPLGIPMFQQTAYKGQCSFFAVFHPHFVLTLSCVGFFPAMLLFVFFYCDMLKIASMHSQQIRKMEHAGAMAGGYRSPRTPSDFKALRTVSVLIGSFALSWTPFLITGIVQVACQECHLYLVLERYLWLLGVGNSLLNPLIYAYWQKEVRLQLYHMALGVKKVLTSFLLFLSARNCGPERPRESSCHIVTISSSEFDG

[4] = molecular target: T2, Glucose-dependent insulinotropic receptor (Homo sapiens, UniProt Q8TDV5); assay: as §1; format: functional, cell-based
T2 sequence (Q8TDV5 whole entry): T1 sequence (whole entry)

[5] = molecular target: T3, Glucose-dependent insulinotropic receptor (Mus musculus) (UniProt Q7TQP3); assay: (§2) Agonist activity at mouse GPR119 expressed in HEK293 cells assessed as cAMP accumulation after 30 mins by fluorescence analysis; format: functional, cell-based
T3 sequence (whole entry): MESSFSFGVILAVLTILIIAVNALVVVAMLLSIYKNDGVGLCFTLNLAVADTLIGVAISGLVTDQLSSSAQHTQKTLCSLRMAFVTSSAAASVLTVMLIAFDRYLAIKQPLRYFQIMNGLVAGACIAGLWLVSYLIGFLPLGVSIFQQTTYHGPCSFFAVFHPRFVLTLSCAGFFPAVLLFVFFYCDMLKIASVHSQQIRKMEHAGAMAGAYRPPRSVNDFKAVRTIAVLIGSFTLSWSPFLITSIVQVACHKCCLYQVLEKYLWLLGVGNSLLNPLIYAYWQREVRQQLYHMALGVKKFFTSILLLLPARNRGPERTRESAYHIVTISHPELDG

[6] = molecular target: T4, Glucose-dependent insulinotropic receptor (Mus musculus, UniProt Q7TQP3); assay: as §2; format: functional, cell-based
T4 sequence (Q7TQP3 whole entry): T3 sequence (whole entry)

Mus musculus [7] = assay: Decrease in blood glucose level in C57B1/6NCrl mouse at 3 mg/kg, po administered 30 mins prior to oral glucose challenge by glucose tolerance test; format: functional, organism-based
Mus musculus [8] = assay: Decrease in blood glucose level in C57B1/6NCrl mouse at 0.1 mg/kg, po administered 30 mins prior to oral glucose challenge by glucose tolerance test relative to control; format: functional
[9] = Solubility of compound at pH 7.4; format: physicochemical; conditions: buffer
Mus musculus [10] = assay: Decrease in blood glucose level in C57B1/6NCrl mouse drug administered 30 mins prior to oral glucose challenge by glucose tolerance test; format: functional, organism-based
Plasma [11] = assay: Plasma concentration in C57B1/6NCrl mouse at 0.1 mg/kg, po; format: ADME, organism-based; conditions: in vivo
Plasma [12] = assay: Plasma concentration in C57B1/6NCrl mouse at 0.3 mg/kg, po; format: ADME, organism-based; conditions: in vivo
Plasma [13] = assay: Plasma concentration in C57B1/6NCrl mouse at 1 mg/kg, po; format: ADME, organism-based; conditions: in vivo
Plasma [14] = assay: Plasma concentration in C57B1/6NCrl mouse at 3 mg/kg, po; format: ADME, organism-based; conditions: in vivo
Plasma [15] = assay: Fraction unbound in C57B1/6NCrl mouse plasma at 3 mg/kg, po after 1 hr; format: ADME, organism-based; conditions: in vivo

Row | Structure (SMILES) | %max [3] | EC50 [4] | %max [5] | EC50 [6] | other results
1 | COc1c(Nc2ccc(C#N)cc2F)ncnc1OC1C2COCC1CN(C(=O)OC1(C)CC1)C2 (configuration not stated) | 99% | 0.005 µM | 116% | 0.047 µM | inhibition in vivo at 3 mg/kg (Mus musculus [1]): 78%; AUC(0-t) at 6 h [2]: 1.43 µM·h
2 | Cc1c(Nc2ccc(C#N)cc2Cl)ncnc1OC1CC2COCC(C1)N2S(=O)(=O)C1CC1 (configuration not stated) | 64% | 0.268 µM | 100% | 1.6 µM | 
3 | Cc1c(Nc2ccc(S(C)(=O)=O)cc2Cl)ncnc1OC1CC2COCC(C1)N2C(=O)OC(C)(C)C (configuration not stated) | 49% | 0.044 µM | 78% | 0.19 µM | Activity (Mus musculus [7]): Active
4 | Cc1c(Nc2ccc(C#N)cc2Cl)ncnc1OC1CC2COCC(C1)N2C(=O)OC(C)(C)C (stereo in doubt; 15) [listing 1 of 2 here] |  | 0.017 µM |  | 0.1 µM | 
5 | CC1(OC(=O)N2CC3COCC(C2)C3Oc2cc(Nc3ccc(C#N)cc3Cl)ncn2)CC1 (configuration not stated) | 88% | 0.025 µM | 105% | 0.254 µM | inhibition in vivo at 3 mg/kg (Mus musculus [1]): 78%; AUC(0-t) at 6 h [2]: 1.19 µM·h
6 | COc1c(Nc2ccc(C#N)cc2Cl)ncnc1OC1C2COCC1CN(C(=O)OC1(C)CC1)C2 (configuration not stated) | 88% | 0.007 µM | 99% | 0.043 µM | inhibition in vivo at 3 mg/kg (Mus musculus [1]): 78%; inhibition in vivo at 0.1 mg/kg (Mus musculus [8]): 40%; solubility [9]: 30 µM (≈ 15 µg/mL); AUC(0-t) at 6 h [2]: 8.23 µM·h; inhibition (Mus musculus [10]): Dose-dependent effect; concentration (Plasma [11]): 20 nM; concentration (Plasma [12]): 90 nM; concentration (Plasma [13]): 220 nM; concentration (Plasma [14]): 350 nM
7 | Cc1c(Nc2ccc(C#N)cc2Cl)ncnc1OC1C2COCC1CN(C(=O)OC(C)(C)C)C2 (stereo in doubt; 19) [listing 1 of 2 here] | 65% |  | 110% |  | 
8 | Cc1c(Nc2ccc(C#N)cc2Cl)ncnc1OC1C2COCC1CN(S(=O)(=O)C1CC1)C2 (stereo in doubt; 18) [listing 1 of 2 here] |  | 1.21 µM |  |  | 
9 | Cc1c(Nc2ccc(C#N)cc2Cl)ncnc1OC1C2COCC1CN(S(=O)(=O)C1CC1)C2 (stereo in doubt; 17) [listing 1 of 2 here] | 56% |  | 53% |  | 
10 | Cc1c(Nc2ccc(C#N)cc2Cl)ncnc1OC1C2COCC1CN(C(=O)OC(C)(C)C)C2 (stereo in doubt; 19) [listing 2 of 2 here] |  | 0.007 µM |  | 0.028 µM | 
11 | Cc1ncccc1Nc1ncnc(OC2C3COCC2CN(C(=O)OC(C)C)C3)c1C (stereo in doubt; 21) [listing 1 of 2 here] | 78% |  |  |  | 
12 | Cc1c(Nc2ccc(C#N)cc2Cl)ncnc1OC1C2COCC1CN(S(=O)(=O)C1CC1)C2 (stereo in doubt; 18) [listing 2 of 2 here] | 52% |  |  |  | 
13 | Cc1c(Nc2ccc(C#N)cc2Cl)ncnc1OC1C2COCC1CN(C(=O)OC1(C)CC1)C2 (configuration not stated) | 74% | 0.004 µM | 102% | 0.033 µM | inhibition in vivo at 3 mg/kg (Mus musculus [1]): 79%; Cp(f) (Plasma [15]): 3 nM; solubility [9]: 6 µM (≈ 2.9 µg/mL); AUC(0-t) at 6 h [2]: 4.98 µM·h
14 | Cc1c(Nc2ccc(C#N)cc2Cl)ncnc1OC1CC2COCC(C1)N2C(=O)OC(C)(C)C (stereo in doubt; 14) [listing 1 of 2 here] | 54% |  | 34% |  | 
15 | Cc1c(Nc2ccc(C#N)cc2Cl)ncnc1OC1CC2COCC(C1)N2C(=O)OC(C)(C)C (stereo in doubt; 15) [listing 2 of 2 here] | 38% |  | 57% |  | Activity (Mus musculus [7]): inactive
16 | Cc1c(Nc2ccc(S(C)(=O)=O)cc2F)ncnc1OC1CC2COCC(C1)N2C(=O)OC1(C)CC1 (configuration not stated) | 87% | 0.07 µM | 79% | 0.511 µM | inhibition in vivo at 3 mg/kg (Mus musculus [1]): 84%; Cp(f) (Plasma [15]): 100 nM; solubility [9]: 3.4 µM (≈ 1.77 µg/mL); AUC(0-t) at 6 h [2]: 2.4 µM·h
17 | Cc1c(Nc2ccc(C#N)cc2Cl)ncnc1OC1C2COCC1CN(S(=O)(=O)C1CC1)C2 (stereo in doubt; 17) [listing 2 of 2 here] |  | 0.051 µM |  | 0.844 µM | 
18 | Cc1c(Nc2ccc(C#N)cc2Cl)ncnc1OC1CC2COCC(C1)N2C(=O)OC(C)(C)C (stereo in doubt; 14) [listing 2 of 2 here] |  | 0.114 µM |  | 0.28 µM | 
19 | Cc1c(Oc2ccc(C#N)cc2Cl)ncnc1OC1C2COCC1CN(C(=O)OC1(C)CC1)C2 (configuration not stated) | 78% | 0.016 µM | 143% | 0.128 µM | inhibition in vivo at 3 mg/kg (Mus musculus [1]): 75%; AUC(0-t) at 6 h [2]: 1.49 µM·h
20 | Cc1ncccc1Nc1ncnc(OC2C3COCC2CN(C(=O)OC(C)C)C3)c1C (stereo in doubt; 21) [listing 2 of 2 here] |  | 0.065 µM |  |  | 
21 | Cc1c(Nc2ccc(C#N)cc2Cl)ncnc1OC1C2COCC1CN(C(=O)OC(C)(C)C)C2 (stereo in doubt; 20) [listing 1 of 2 here] |  | 0.02 µM |  | 0.14 µM | 
22 | Cc1c(Nc2ccc(C#N)cc2Cl)ncnc1OC1C2COCC1CN(C(=O)OC(C)(C)C)C2 (stereo in doubt; 20) [listing 2 of 2 here] | 83% |  | 69% |  | 
23 | Cc1ncccc1Nc1ncnc(OC2C3COCC2CN(C(=O)OC(C)C)C3)c1C (stereo in doubt; 22) |  | > 10 µM |  |  | 
